From paper PMC7004151, “Synthesis and Structure‐Activity Relationships of N‐(4‐Benzamidino)‐Oxazolidinones: Potent and Selective Inhibitors of Kallikrein‐Related Peptidase 6” (Chemmedchem, 2019)

Columns and labels:
CYP2D6 = target: T1, CYP2D6 (Homo sapiens, UniProt P10635); experiment: Fluorescence-based CYP inhibition, CYP bactosomes; format: in vitro ADME; details: read-out: CYP Inhibition IC50 2D6
T1 construct: purchased Cypex; host or cells: bacterial membranes (bactosomes)
Protocol: (§1) Fluorescence-based CYP Inhibition using recombinantly expressed CYP bactosomes: Fluorescence CYP inhibition studies were conducted at 37 °C in 96-well, flat-bottom, clear polystyrene plates. Incubation mixtures containing […] bactosomes (1000 pmol/mL, 10 mg/mL Cypex TM), fluorigenic substrate (Cypex TM) and 50 mM potassium phosphate buffer (pH 7.4) were prepared at the following final concentrations: CYP1A2, 5 pmol/mL+0.5 μM Ethoxyresorufin (ER); […] Bactosome control protein was included in reactions to give a final concentration of 0.025 mg/mL. Reaction times were verified to be within the limits of kinetics linearity. For each isoform, 220 μL of incubation mix was added to each well of a 96-well, flat-bottom, clear polystyrene plate. […] Reactions were initiated by the addition of 25 μL regenerating cofactor solution (23 mM Glucose-6-Phosphate, 2.2 mM NADP, 6 Units per ml Glucose-6-Phosphate Dehydrogenase (from Baker's yeast S. cerevisiae) in 2 % w/v NaHCO3, Sigma) and subsequent production of fluorescence metabolite measured at 1 min intervals over a 10 min period using a BMG Optima fluorescence detector (ER: Exc 530 nm, Em 590 nm, MFC: Exc 410 nm, Em 530 nm, CEC: Exc 410 nm, Em 530 nm, MAMC: Exc 405 nm, Em 460 nm, DEF: Exc 405 nm, Em 560 nm, 7BQ: Exc 485 nm, Em 530 nm). Fluorescence responses were adjusted to a percentage of uninhibited control before plotting against compound concentration and deriving the IC50 by fitting to a 4 parameter logistic regression model.

CYP1A2 = target: T2, CYP1A2 (Homo sapiens, UniProt P05177); experiment: Fluorescence-based CYP inhibition, CYP bactosomes; format: in vitro ADME; details: read-out: CYP Inhibition IC50 1A2
T2 construct: purchased Cypex; host or cells: bacterial membranes (bactosomes)
T2 sequence (P05177 1-516): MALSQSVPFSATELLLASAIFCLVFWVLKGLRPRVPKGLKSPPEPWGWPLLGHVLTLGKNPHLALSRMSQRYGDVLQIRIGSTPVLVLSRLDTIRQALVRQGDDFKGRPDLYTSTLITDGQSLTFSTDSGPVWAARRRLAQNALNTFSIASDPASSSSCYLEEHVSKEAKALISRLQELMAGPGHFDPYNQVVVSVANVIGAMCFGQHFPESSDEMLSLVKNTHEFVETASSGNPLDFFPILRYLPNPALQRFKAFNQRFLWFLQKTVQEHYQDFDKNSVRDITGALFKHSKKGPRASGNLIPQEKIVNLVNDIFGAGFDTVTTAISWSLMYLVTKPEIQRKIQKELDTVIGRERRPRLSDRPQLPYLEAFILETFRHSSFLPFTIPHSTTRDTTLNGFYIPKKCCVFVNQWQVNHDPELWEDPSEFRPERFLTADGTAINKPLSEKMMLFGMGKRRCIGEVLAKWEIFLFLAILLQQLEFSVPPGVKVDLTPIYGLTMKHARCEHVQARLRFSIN
Protocol: as §1

CYP2C19 = target: T3, CYP2C19 (Homo sapiens, UniProt P33261); experiment: Fluorescence-based CYP inhibition, CYP bactosomes; format: in vitro ADME; details: recombinantly expressed CYP bactosomes (EasyCYP), pH 7.4, probe 3-Cyano-7-Ethoxycoumarin (CEC), 25 μM, read-out: CYP Inhibition IC50 2C19
T3 construct: purchased Cypex; host or cells: bacterial membranes (bactosomes)
T3 sequence (P33261 whole entry): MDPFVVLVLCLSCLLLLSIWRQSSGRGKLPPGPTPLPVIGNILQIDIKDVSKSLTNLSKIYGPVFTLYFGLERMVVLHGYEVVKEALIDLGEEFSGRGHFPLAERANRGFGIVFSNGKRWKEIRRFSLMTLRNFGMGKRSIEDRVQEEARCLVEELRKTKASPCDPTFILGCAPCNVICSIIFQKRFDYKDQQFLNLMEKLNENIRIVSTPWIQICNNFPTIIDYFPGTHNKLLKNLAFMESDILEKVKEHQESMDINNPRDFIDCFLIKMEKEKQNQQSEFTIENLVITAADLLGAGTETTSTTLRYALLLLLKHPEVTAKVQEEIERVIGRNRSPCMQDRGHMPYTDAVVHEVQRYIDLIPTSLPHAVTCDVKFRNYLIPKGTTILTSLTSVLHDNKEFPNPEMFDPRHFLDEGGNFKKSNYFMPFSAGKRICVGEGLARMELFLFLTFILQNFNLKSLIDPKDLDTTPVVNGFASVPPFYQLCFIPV
Protocol: as §1

CYP3A4 = target: T4, CYP3A4 (Homo sapiens, UniProt P08684); experiment: Fluorescence-based CYP inhibition, CYP bactosomes; format: in vitro ADME; details: read-out: CYP Inhibition IC50 3A4
T4 construct: purchased Cypex; host or cells: bacterial membranes (bactosomes)
T4 sequence (P08684 whole entry): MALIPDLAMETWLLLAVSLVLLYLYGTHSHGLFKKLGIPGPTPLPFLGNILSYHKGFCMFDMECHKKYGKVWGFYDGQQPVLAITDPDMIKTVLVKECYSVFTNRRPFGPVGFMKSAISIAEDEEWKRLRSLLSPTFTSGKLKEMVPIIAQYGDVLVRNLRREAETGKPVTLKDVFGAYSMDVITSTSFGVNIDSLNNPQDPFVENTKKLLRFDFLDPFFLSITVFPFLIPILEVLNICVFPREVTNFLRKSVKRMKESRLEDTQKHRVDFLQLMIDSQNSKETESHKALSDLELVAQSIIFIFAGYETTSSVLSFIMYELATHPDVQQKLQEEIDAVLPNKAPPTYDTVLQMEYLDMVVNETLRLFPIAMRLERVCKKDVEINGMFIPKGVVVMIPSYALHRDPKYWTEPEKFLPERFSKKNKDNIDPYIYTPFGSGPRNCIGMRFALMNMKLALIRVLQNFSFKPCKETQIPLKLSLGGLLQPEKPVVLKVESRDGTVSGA
Protocol: as §1

CYP2C9 = target: T5, CYP2C9 (Homo sapiens, UniProt P11712); experiment: Fluorescence-based CYP inhibition, CYP bactosomes; format: in vitro ADME; details: read-out: CYP Inhibition IC50 2C9
T5 construct: purchased Cypex; host or cells: bacterial membranes (bactosomes)
T5 sequence (P11712 whole entry): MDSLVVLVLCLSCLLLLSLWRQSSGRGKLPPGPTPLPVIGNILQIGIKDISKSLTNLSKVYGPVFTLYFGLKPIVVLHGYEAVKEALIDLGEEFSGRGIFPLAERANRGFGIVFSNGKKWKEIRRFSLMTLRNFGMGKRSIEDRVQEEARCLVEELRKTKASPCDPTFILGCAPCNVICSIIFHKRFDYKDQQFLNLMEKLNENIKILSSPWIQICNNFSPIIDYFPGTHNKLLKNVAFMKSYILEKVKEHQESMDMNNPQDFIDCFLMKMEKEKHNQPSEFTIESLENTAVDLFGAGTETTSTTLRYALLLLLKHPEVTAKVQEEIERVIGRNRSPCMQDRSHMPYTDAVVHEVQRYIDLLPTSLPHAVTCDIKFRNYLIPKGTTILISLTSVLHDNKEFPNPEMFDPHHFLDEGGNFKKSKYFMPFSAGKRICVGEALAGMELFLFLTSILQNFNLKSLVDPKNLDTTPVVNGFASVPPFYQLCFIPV
Protocol: as §1

KLK7 = target: T6, KLK7 (Homo sapiens, UniProt P49862); experiment: KLK7 enzyme inhibition assay; format: biochemical; details: read-out: KLK7 pIC50 (converted)
T6 construct: purchased 2B scientific
T6 sequence (P49862 30-253, species assumed): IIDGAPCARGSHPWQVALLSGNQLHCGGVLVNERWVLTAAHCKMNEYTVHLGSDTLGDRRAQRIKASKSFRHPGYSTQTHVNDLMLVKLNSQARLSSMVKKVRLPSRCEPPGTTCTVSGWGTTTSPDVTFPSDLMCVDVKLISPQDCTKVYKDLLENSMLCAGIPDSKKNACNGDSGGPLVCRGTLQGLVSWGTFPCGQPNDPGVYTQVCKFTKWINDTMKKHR
Protocol: Enzyme inhibition assays: All chemicals were purchased from Sigma Aldrich (Gillingham, UK) unless otherwise stated. All experiments were conducted in 384 well black, low volume microplates (Greiner 784076) with a final volume of 20 μL and compounds were dispensed into assay plates using an ECHO 550 acoustic dispenser (Labcyte). KLK6 (5 nM) (prepared as in ref. 21) was incubated with test compounds for 30 min at room temperature in assay buffer (50 mM Tris, pH 7.5, 150 mM NaCl, 1 mM EDTA, 0.05 % tween 20, 0.1 % bovine serum albumin (BSA), 1 mM dithiothreitol (DTT)) before the reaction was started by addition of 20 μM Boc‐Phe‐Ser‐Arg‐AMC substrate (Bachem). Fluorescence intensity was read at ex/em 355/460 following incubation for 2 h in the dark at room temperature.
Assays using KLK7 and KLK8 (2B scientific) were conducted in the same manner as for KLK6 with the following exceptions. Both KLK7 and KLK8 required activation before assaying. KLK7 was combined with an equal volume of 20 μg/ml thermolysin (R&D systems) in activation buffer (50 mM Tris, pH 7.5, 10 mM CaCl2, 150 mM NaCl and 0.05 % Brij‐L23) and incubated at 37 °C for 2 h, the reaction was stopped with the addition of 100 mM EDTA in stop solution (50 mM Tris, 150 mM NaCl, pH 8.5). KLK8 was combined with an equal volume of 0.4 mU/mL lysyl endopeptidase (Alpha laboratories) in activation buffer (50 mM Tris, pH 8.0) and incubated at 37 °C for 30 min. Activated KLK7 (40 nM) and KLK8 (25 nM) were assayed with 40 μM Mca‐RPKPVE‐Nval‐WRK(Dnp)‐NH2 fluorogenic MMP substrate (R&D systems) and 25 μM Boc‐V‐P‐R‐AMC substrate (R&D systems), respectively.

Human thrombin = target: T7, Human thrombin (Homo sapiens, UniProt P00734); experiment: Thrombin enzyme inhibition assay; format: biochemical; details: read-out: Thrombin pIC50 (converted)
T7 construct: Human thrombin was purchased from Biopur; purchased Biopur
Protocol: Human thrombin was purchased from Biopur. Human trypsin was purchased from Polymun Scientific. Human Factor Xa was purchased from Enzo Life Sciences. Thrombin (20 nM), trypsin (0.000015 %) or Factor Xa (10 nM) were assayed in a similar manner to the KLKs but were incubated with compound for 20 min at room temperature in assay buffer (50 mM Tris HCl, pH 7.6, 100 mM NaCl, 1 mg/ml CHAPS, 0.05 % bovine serum albumin (BSA), 1 mM dithiothreitol (DTT)) before the addition of 5 μM, 2.5 μM or 1.5 μM Rhodamine 110 substrate (Cambridge bioscience ltd) respectively. Fluorescence intensity was then read at ex/em 485/535 following incubation for 1 h at room temperature (thrombin and factor Xa) or 20 min (trypsin).

T1 sequence (P10635 whole entry): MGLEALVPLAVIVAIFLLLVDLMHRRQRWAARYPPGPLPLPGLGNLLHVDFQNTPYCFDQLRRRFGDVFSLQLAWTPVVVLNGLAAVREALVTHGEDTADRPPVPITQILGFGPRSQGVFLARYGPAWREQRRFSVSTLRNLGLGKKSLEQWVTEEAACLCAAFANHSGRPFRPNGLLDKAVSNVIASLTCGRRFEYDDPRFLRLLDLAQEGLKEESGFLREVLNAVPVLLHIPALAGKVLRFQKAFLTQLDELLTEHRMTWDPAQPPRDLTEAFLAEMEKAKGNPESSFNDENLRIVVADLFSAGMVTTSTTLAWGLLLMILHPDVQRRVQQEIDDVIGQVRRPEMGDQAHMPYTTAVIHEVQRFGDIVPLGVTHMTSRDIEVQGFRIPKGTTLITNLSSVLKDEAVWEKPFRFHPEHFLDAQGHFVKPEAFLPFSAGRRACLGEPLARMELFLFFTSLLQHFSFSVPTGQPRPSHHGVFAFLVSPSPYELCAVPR

CC[C@H](NC(=O)[C@H]1CN(c2ccc(C(=N)N)cc2)C(=O)O1)c1cccc2ccccc12 [Compound 32, (5R)‐3‐(4‐carbamimidoylphenyl)‐N‐((S)‐1‐(naphthalen‐1‐yl)propyl)‐2‐oxooxazolidine‐5‐carboxamide]
IC50 (CYP2D6): > 10 µM
IC50 (CYP1A2): > 10 µM
IC50 at 10 min (CYP2C19): 7.9 µM
IC50 (CYP3A4): 4.8 µM
IC50 (CYP2C9): > 10 µM
IC50 (KLK7): > 20 µM
IC50 (Human thrombin): > 20 µM
